Source: patent US20030050249A1, “Complexes of alpha-6 integrin subunits with small peptides and methods for treating indications resulting from modulation of integrin-mediated responses by altering signal transduction” (priority 2000, published 2003)
Ends that are not written are not given here. Peptide text beside a SMILES is read from it. * marks the point of attachment. For = O=C*

Legend:
[1] = HK-X administration to normal mice
inflamed lung = conditions: mouse, in vivo
Protocol: In this model HK-X was administered intranasally for up to 3 months.

[2] = mouse, in vivo
[3] = tested on: normal human peripheral blood mononuclear cells; assay: Effects of HK-X on cultures of human peripheral blood mononuclear cells with and without Con A (cell cycle, viability, apoptosis); assay type: cell-based; conditions: versus vehicle
Protocol: The effects of addition of HK-X (as compared to a control of vehicle without peptide) to cultures of normal human peripheral blood mononuclear cells with and without the plant lectin, Con A, were also evaluated. […] However, HK-X induced apoptosis in a significant population of cells (˜30%) stimulated with Con A as determined by the presence of a sub G0/G1 population in the DNA profile. In cultures where the cells were not stimulated to enter the cell cycle (without Con A), the levels of sub G0/G1 were similar in HK-X treated and control cultures (<7%).

[4] = tested on: rat peritoneal mast cells; assay: Binding of FITC-HK-X to rat peritoneal mast cells; conditions: freshly isolated mast cells, FIG. 3
Protocol: Rat peritoneal mast cells were isolated by infusion of 35 ml of Tyrode's Solution into the peritoneal cavity of anesthetized rats. The rats were then sacrificed by injection of an overdose of anesthetic. The peritoneal cells were harvested, placed into 15 ml centrifuge tubes. The cells were pelleted by centrifugation at 250×g for 10 min at room temperature.
Other cell types were also tested for the ability to bind FITC labeled HK-X on their cell surface.

FPR = biological target: T1, FPR (Homo sapiens, UniProt P21462); conditions: compared with FMLP; cited from earlier work
T1 sequence (P21462 1-350): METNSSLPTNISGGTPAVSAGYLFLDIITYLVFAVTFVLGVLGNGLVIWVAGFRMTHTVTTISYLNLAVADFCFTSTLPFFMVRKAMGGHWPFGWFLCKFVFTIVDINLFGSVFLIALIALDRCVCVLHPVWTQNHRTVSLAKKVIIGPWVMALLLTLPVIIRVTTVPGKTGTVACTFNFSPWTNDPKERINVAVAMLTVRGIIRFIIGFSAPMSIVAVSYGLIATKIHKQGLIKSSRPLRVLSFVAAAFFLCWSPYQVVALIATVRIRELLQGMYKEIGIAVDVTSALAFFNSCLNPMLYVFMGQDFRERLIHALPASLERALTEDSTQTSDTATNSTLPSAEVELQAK

CSCC[C@H](NC=O)C(=O)N[C@@H](CC(C)C)C(=O)N[C@@H](Cc1ccccc1)C(=O)N[C@@H](Cc1ccccc1)C(=O)O [HK-X, f-Met-Leu-Phe-Phe] (For-MLFF-OH)
distribution or numbers of nucleated cells of the peripheral blood ([1]; 10 μg to 1000 μg per adult mouse): no alterations
numbers of antibody forming cells (PFC), IgM and IgG ([1]; mice immunized with sheep red cells, HK-X prior to and after immunization): no alteration
Liver and kidney function ([1]; normal mice): unaffected
production of required cytokines ([1]; normal mice): did not down regulate
proliferation and differentiation of hematopoietic precursors of neutrophils, basophils, monocytes and lymphocytes ([1]; normal mice): did not negatively affect
pathological changes in the alveoli, bronchi or vessels (inflamed lung): no pathological changes
toxicity [2]: no discernable toxicity
cell viability [3]: did not effect cell viability

FITC-HK-X: fluoresceinated HK-X (f-Met-Leu-Phe-Phe) (MLFF; not fully specified; also: FITC label, site not given here)
numbers of FITC-HK-X bound [4]: roughly equivalent to that of human eosinophils

Met-Met-Trp-Leu-Leu (MMWLL; printed: Met-Met-Trp-Leu-Leu)
neutrophil function activity (FPR): comparable in neutrophil function activity to FMLP
